In paper PMC10053118, “Laccase Production from Agrocybe pediades: Purification and Functional Characterization of a Consistent Laccase Isoenzyme in Liquid Culture” (Microorganisms, 2023):

System: T1, extracellular laccase (laccI) of A. pediades
T1 construct: native, partially purified from culture filtrate (Sephacryl 200), glycosylated monomer, 72 kDa native, 55-60 kDa denatured
Assay: spectrophotometric oxidation at […] nm, Michaelis-Menten nonlinear fit
Type: biochemical, Agrocybe pediades
Conditions: pH 5.0; 0-2 mM substrate; air oxygen as co-substrate; read-out: apparent Km

Q: With COc1cccc(OC)c1O [2,6-DMP, 2,6-dimethoxyphenol] as the molecule, how does the Km read?
A: 100 µM
